Where two headings read alike, the source gives them in different places. Marks after values point to notes of the source that are not given here.
Legend:
CDK9/CycT1 = molecular target: T1, CDK9/CycT1 (Homo sapiens, UniProt P50750); experiment: CDK9/CycT1 high ATP kinase assay (Method 1b, TR-FRET, 2 mM ATP); type: biochemical
T1 construct: Recombinant full-length His-tagged human CDK9 and CycT1; His; purchased Invitrogen PV4131; host or cells: insect cells
Experimental: 1b. CDK9/CycT1 High ATP Kinase Assay
CDK9/CycT1-inhibitory activity of compounds of the present invention at a high ATP concentration after preincubation of enzyme and test compounds was quantified employing the CDK9/CycT1 TR-FRET assay as described in the following paragraphs.
Recombinant full-length His-tagged human CDK9 and CycT1, expressed in insect cells and purified by Ni-NTA affinity chromatography, were purchase from Invitrogen (Cat. No PV4131). As substrate for the kinase reaction biotinylated peptide biotin-Ttds-YISPLKSPYKISEG (C-terminus in amid form) was used which can be purchased e.g. from the company JERINI peptide technologies (Berlin, Germany). For the assay 50 nl of a 100 fold concentrated solution of the test compound in DMSO was pipetted into a black low volume 384 well microtiter plate (Greiner Bio-One, Frickenhausen, Germany), 2 μl of a solution of CDK9/CycT1 in aqueous assay buffer [50 mM Tris/HCl pH 8.0, 10 mM MgCl2, 1.0 mM dithiothreitol, 0.1 mM sodium ortho-vanadate, 0.010% (v/v) Nonidet-P40 (Sigma)] were added and the mixture was incubated for 15 min at 22° C. to allow pre-binding of the test compounds to the enzyme before the start of the kinase reaction. Then the kinase reaction was started by the addition of 3 μl of a solution of adenosine-tri-phosphate (ATP, 3.3 mM=> final conec. in the 5 μl assay volume is 2 mM) and substrate (1.67 μM=> final conc. in the 5 μl assay volume is 1 μM) in assay buffer and the resulting mixture was incubated for a reaction time of 25 min at 22° C. The concentration of CDK9/CycT1 was adjusted depending of the activity of the enzyme lot and was chosen appropriate to have the assay in the linear range, typical concentrations were in the range of 0.5 μg/mL. The reaction was stopped by the addition of 5 μl of a solution of TR-FRET detection reagents (0.2 μM streptavidine-XL665 [Cisbio Bioassays, Codolet, France] and 1 nM anti-RB(pSer807/pSer811)-antibody from BD Pharmingen [#558389] and 1.2 nM LANCE EU-W1024 labeled anti-mouse IgG antibody [Perkin-Elmer, product no. AD0077]) in an aqueous EDTA-solution (100 mM EDTA, 0.2% (w/v) bovine serum albumin in 100 mM HEPES pH 7.5).
The resulting mixture was incubated 1 h at 22° C. to allow the formation of complex between the phosphorylated biotinylated peptide and the detection reagents. Subsequently the amount of phosphorylated substrate was evaluated by measurement of the resonance energy transfer from the Eu-chelate to the streptavidine-XL. Therefore, the fluorescence emissions at 620 nm and 665 nm after excitation at 350 nm was measured in a HTRF reader, e.g. a Rubystar (BMG Labtechnologies, Offenburg, Germany) or a Viewlux (Perkin-Elmer). The ratio of the emissions at 665 nm and at […] was taken as the measure for the amount of phosphorylated substrate. The data were normalised (enzyme reaction without inhibitor=0% inhibition, all other assay components but no enzyme=100% inhibition).

A2780 = experiment: Proliferation assay, Cell Titer-Glo; type: cell-based; conditions: Homo sapiens; A2780, 72-hour exposure; read-out: Inhibition of A2780 cell proliferation IC50
Experimental: (§1) MOLM-13 human acute myeloid leukemia cells (DSMZ ACC 554) and A2780, human ovarian carcinoma cells (ECACC #93112519) were seeded at a density of 5,000 cells/well (MOLM-13), or 3,000 cells/well (A2780) in a 96-well multititer plate in 150 μL of growth medium supplemented 10% fetal calf serum. After 24 hours, cell viability of one plate (zero-point plate) was determined with the Cell Titer-Glo Luminescent Cell Viability Assay (Promega), whiletest compound was added to the wells of the other plates employing HP Dispenser (final concentrations in the range of 0.0001-10 μM and DMSO controls). Cell viability was assessed after 72-hour exposure with the Cell Titer-Glo Luminescent Cell Viability Assay (Promega). IC50 values (inhibitory concentration at 50% of maximal effect) were determined by means of a 4 parameter fit on measurement data which were normalized to vehicle (DMSO) treated cells (=100%) and measurement readings taken immediately before compound exposure (=0%).

MOLM-13 = experiment: Proliferation assay, Cell Titer-Glo; type: cell-based; conditions: Homo sapiens; MOLM-13, 72-hour exposure; read-out: Inhibition of MOLM-13 cell proliferation IC50
Experimental: as §1

[1] = molecular target: T2, human PTEFb (CDK9/Cyclin T1) (Homo sapiens, UniProt P50750); experiment: Surface Plasmon Resonance PTEFb; type: binding; conditions: for Target resident time: 1/koff; for koff: read-out: Dissociation rate constant koff
T2 construct: purchased ProQinase, Freiburg, Germany
T2 sequence (P50750 whole entry): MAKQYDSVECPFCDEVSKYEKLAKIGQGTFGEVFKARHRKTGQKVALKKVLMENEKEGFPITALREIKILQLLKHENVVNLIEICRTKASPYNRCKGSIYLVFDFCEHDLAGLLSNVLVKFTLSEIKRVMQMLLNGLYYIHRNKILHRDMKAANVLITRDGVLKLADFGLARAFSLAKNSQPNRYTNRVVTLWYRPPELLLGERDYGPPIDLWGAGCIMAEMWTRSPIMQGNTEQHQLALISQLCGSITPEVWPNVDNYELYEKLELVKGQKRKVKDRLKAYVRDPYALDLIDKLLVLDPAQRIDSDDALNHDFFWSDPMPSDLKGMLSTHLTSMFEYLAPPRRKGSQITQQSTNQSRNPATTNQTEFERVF
T2 sequence (O60563 whole entry partner): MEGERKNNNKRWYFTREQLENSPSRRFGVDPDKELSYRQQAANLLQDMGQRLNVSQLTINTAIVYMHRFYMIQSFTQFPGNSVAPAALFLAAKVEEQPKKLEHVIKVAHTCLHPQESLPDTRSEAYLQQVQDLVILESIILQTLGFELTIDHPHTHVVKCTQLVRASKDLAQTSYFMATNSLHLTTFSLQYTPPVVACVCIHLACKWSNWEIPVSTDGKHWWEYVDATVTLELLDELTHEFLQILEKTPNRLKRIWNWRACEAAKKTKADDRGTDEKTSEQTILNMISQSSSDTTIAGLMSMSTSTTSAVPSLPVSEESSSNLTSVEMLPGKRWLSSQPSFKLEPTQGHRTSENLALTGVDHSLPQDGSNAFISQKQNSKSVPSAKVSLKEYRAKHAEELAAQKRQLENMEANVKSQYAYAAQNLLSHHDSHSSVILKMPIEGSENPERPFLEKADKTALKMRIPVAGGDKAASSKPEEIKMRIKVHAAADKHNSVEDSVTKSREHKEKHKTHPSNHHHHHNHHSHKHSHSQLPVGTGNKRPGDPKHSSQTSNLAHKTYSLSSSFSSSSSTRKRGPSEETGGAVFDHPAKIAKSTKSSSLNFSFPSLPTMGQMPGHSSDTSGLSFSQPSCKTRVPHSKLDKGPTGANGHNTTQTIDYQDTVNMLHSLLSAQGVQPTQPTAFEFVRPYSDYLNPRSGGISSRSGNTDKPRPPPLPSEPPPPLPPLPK
Source text: 8. Surface Plasmon Resonance PTEFb
The ability of the compounds according to the invention to bind human PTEFb may be determined using surface plasmon resonance (SPR). KD values and koff values may be measured using a Biacoret T200 instrument (GE Healthcare, Uppsala, Sweden).
For SPR measurements, recombinant human PTEFb (CDK9/Cyclin T1 recombinant human active protein kinase purchased from ProQinase, Freiburg, Germany) is immobilized using standard amine coupling (Johnsson B et al, Anal Biochem. 1991 Nov. 1; 198(2):268-77). Briefly, carboxymethylated dextran biosensor chips (CM7, GE Healthcare) are activated with N-ethyl-N′-(3-dimethylaminopropyl)-carbodiimide hydrochloride (EDC) and N-hydroxysuccinimide (NHS) according to the supplier's instructions. Human PTEFb is diluted in 1×HBS-EP+(GE Healthcare) into 30 μg/ml and injected on the activated chip surface. Subsequently, a 1:1 solution of 1 M ethanolamine-HCl (GE Healthcare) and 1×HBS-EP is injected to block unreacted groups, resulting in approximately 4000 response units (RU) of immobilized protein. A reference surface is generated by treatment with NHS-EDC and ethanolamine-HCl. Compounds are dissolved in 100% dimethylsulfoxide (DMSO, Sigma-Aldrich, Germany) to a concentration of 10 mM and subsequently diluted in running buffer (1×HBS-EP+pH 7.4 [generated from HBS-EP+Buffer 10×(GE Healthcare): 0.1 M HEPES, 1.5 M NaCl, 30 mM EDTA and 0.5% v/v Surfactant P20], 1% v/v DMSO). For kinetic measurements, four-fold serial dilutions of compound (0.39 nM to 100 nM) are injected over immobilized protein. […] Compound concentrations are injected for 60 s followed by a dissociation time of 1800 s. The resulting sensorgrams are double-referenced against the reference surface as well as against blank injections.
The double-referenced sensorgrams are fit to a simple reversible Langmuir 1:1 reaction mechanism as implemented in the Biacore® T200 evaluation software 2.0 (GE Healthcare). In cases were full compound dissociation has not occurred at the end of the dissociation phase, the Rmax parameter (response at saturation) is fit as local variable. In all other cases, Rmax is fit as global variable.

T1 sequence (P50750 whole entry): as the sequence (P50750 whole entry) above
T1 sequence (O60563 whole entry partner): as the sequence (O60563 whole entry partner) above

Which IC50 (CDK9/CycT1; Method 1b, 2 mM ATP) does the source give for `CS(=N)(=N)Cc1cc2cc(c1)OCCCCOc1cc(F)ccc1-c1nc(ncc1F)N2` [Example 5, 16,20-difluoro-9-[(S-methylsulfonodiimidoyl)methyl]-2,3,4,5-tetrahydro-12H-13,17-(azeno)-11,7-(metheno)-1,6,12,14-benzodioxadiazacyclononadecine] here?
The IC50 was 2.1 nM.

What about the “Selectivity high ATP CDK9 over high ATP CDK2: IC50 (high ATP CDK2)/IC50 (high ATP CDK9)” value (CDK9/CycT1; Methods 1b and 2b, minimal values) of the same compound?
Its value is 590.

And the IC50 (A2780)?
The IC50 was 11.7 nM.

What about the IC50 (MOLM-13) of the same compound?
The IC50 was 8.2 nM.

And the Target resident time ([1]; 25° C., Parameters C)?
Its Target resident time is 49 min.

And the koff ([1]; 25° C., Parameters C)?
The koff was 0.000338 s⁻¹.

What about the Target resident time ([1]; 25° C., Parameters D) of the same compound?
Its Target resident time is 40 min.

What about the koff ([1]; 25° C., Parameters D) of the same compound?
The koff was 0.000412 s⁻¹.

And the Target resident time ([1]; 37° C., Parameters E)?
The Target resident time was 21* min.

What about the koff ([1]; 37° C., Parameters E) of the same compound?
Its koff is 0.000809 s⁻¹.

Reference: patent US10717749B2, “Macrocyclic sulfondiimine compounds” (BAYER PHARMA AKTIENGESELLSCHAFT, priority 2015, dated 2020)
